In patent US5606037A, “Processes antineoplastic heteronaphthoquinones” (BioChem Pharma Inc., priority 1995, dated 1997) one finds IC50 data, which are given here for nine compounds.

As usually defined, the IC50 is the concentration at which inhibition is half-maximal.

Holding throughout (type): cell-based, Human
In one experiment the test system is Lox (Melanoma). In words: In vitro cytotoxicity, microculture tetrazolium (MTT) assay, LOX. Conditions: Homo sapiens, 48 h with compound, further 48 h, Table 1. As for the experimental part: (§1) The microculture tetrazolium assay was used to test in vitro cytotoxicity. This assay is described in Plumb, J. A. et al., 1989 Cancer Research 49, 4435-4440, which is herein incorporated by reference. The cytotoxicity of compounds towards tumor cells is measured in vitro using the assay. This assay method is based upon the ability of live, but not dead cells to reduce the yellow water soluble dye 3-(4,5-dimethylthiazol-2-yl)-2,5-diphenyltetrazolium bromide (MTT) to its water insoluble purple formazan product.
(§2) Human Tumor Cell lines, used were:
Lox (Melanoma)--Southern Research Institute.
(§3) The cells were maintained in exponential growth in culture in minimal essential media (MEM) supplemented with non-essential amino acids, and containing 15% (v/v) fetal. bovine serum, 5 mM L-glutamine, 1 mM sodium pyruvate, and 0.1 U/ml insulin. All cell lines were grown at 37° C. in an atmosphere of 5% CO2 in air.
(§4) MTT: 2 mg/ml in phosphate buffered saline (stable at 4° C. in dark for 1 week).
(§5) Sorensen's buffer: 0.1M glycine/NaOH, pH 10.5, containing 0.1M NaCl.
(§6) Test compounds: 20 mM in DMSO and diluted to a final concentration of 200 μM in culture medium before use.
(§7) For each assay, doxorubicin is included as an inter-assay standard. This allows us to monitor the behaviour of the assay in general, and in particular, to check that the SKVLB line has maintained its resistant phenotype.
(§8) The assays are carried out in 96-well (8 well×12 well) microtiter plates. Serial dilutions of the compound are tested along the length of the plate. A 1:3 serial dilution of compound in culture medium covers a concentration range from 100 μM to 1.7 nM. Each concentration of compound is tested in quadruplet, allowing two compounds to be tested per plate. Wells containing no cells (blank) and cells with no test compound (control) are included on each plate.
(§9) Cells are plated out in 100 μl of culture medium in the microtiter plates at a density of around 1,500-4,000 cells per well. The plates are incubated overnight to allow the cells to become adherent after which the test compound is added (100 μl of appropriate dilution per well). The cells are incubated with test compound at 37° C. for 48 h after which the compound is replaced with fresh medium. After a further 48 h incubation at 37° C., 50 μl of MTT solution (2 mg/ml) is added to each well. The plates are incubated in the dark for 4 h at 37° C. after which the medium is removed. The MTT formazan product is extracted from the cells by the addition of 200 μl DMSO followed by 50 μl of Sorensen's buffer. The plates are shaken briefly and the absorbance at 570 nm is read using a Molecular Devices UV max plate reader. Curves are fit to the MTT assay data using a four parameter logistic equation, and the data are normalized to fit a 0% to 100% survival scale.

The test system of experiment [1] is SKVLB (Ovarian; multidrug resistant). In words: In vitro cytotoxicity, microculture tetrazolium (MTT) assay, SKVLB. Conditions: Homo sapiens; SKVLB multidrug resistant ovarian; 48 h with compound, further 48 h, MTT; Table 1. As to the method:
as §1, §2
SKVLB (Ovarian; multidrug resistant)--Dr. V. Ling, Ontario Cancer Institute.
as §3, §4, §5, §6, §7, §8, §9

Experiment [2] has as its system SKOV3 (Ovarian adenocarcinoma). The experiment in a line: In vitro cytotoxicity, microculture tetrazolium (MTT) assay, SKOV3. The following applies: Homo sapiens, SK-OV-3; SKOV3 ovarian adenocarcinoma; 48 h with compound, further 48 h, MTT; Table 1. As for the experimental part:
as §1, §2
SKOV3 (Ovarian adenocarcinoma)--provided by Dr. V. Ling, Ontario Cancer Institute.
as §3, §4, §5, §6, §7, §8, §9

For experiment [3], the system named is HT 29 (Colon adenocarcinoma). In words: In vitro cytotoxicity, microculture tetrazolium (MTT) assay, HT29. The following applies: Homo sapiens, HT-29, 48 h with compound, further 48 h, Table 1. As to the method: as §1, §2
HT 29 (Colon adenocarcinoma) ATCC catalog #HTB-38.
as §3, §4, §5, §6, §7, §8, §9

Each structure is given as a SMILES string.

In the case of `CC(=O)O[C@H]1[C@@H](I)[C@H](O[C@H]2O[C@H](C(C)=O)CC3=C2C(=O)c2ccccc2C3=O)O[C@@H](C)[C@H]1OC(C)=O` [BCH1666, (1'S,1R,3S)-methyl-(1-[2',6'-dideoxy-3'-4'-diacetoxy-2'-iodo-L-lyxohexopyranose]-5,10-dioxo-3,4,5,10-tetrahydronaphtho[2,3-c]-pyran-3-yl) ketone], the IC50 with Lox (Melanoma) stood at 125 nM; in experiment [1] it was 0.205 µM; in experiment [2], 272 nM; in experiment [3], 78.3 nM.
In the same order, the values of `C[C@@H]1O[C@@H](OC2OC(C#N)CC3=C2C(=O)c2ccccc2C3=O)C[C@H](NC(=O)C(F)(F)F)[C@@H]1O` (mixture of isomers) [BCH1688, (1'-S, 1-R, 3-S) and (1'-S, 1-S, 3-R)-3-cyano-1-[2',3',6'-trideoxy-3'-trifluoroacetamido-4'-hydroxy-L-lyxohexopyranose)-5,10-dioxo-3,4,5,10-tetrahydronaphtho-[2,3C]pyran-3-yl] are 402 nM, 2.77 µM, 634 nM and 1350 nM.
For the compound `COC(=O)C1=CC2=C(CO1)C(=O)c1ccccc1C2=O` [BCH2830, 3-methoxy carbonyl-5,10-dioxo-5,10-dihydro-1H-naphtho-[2,3-c]-pyran], the IC50 in experiment [2] was 7120 nM; in experiment [3] it was 12500 nM.
As to `CC(=O)[C@]1(C)CC2=C(C(=O)c3ccccc3C2=O)[C@H](O[C@H]2C[C@H](NC(=O)C(F)(F)F)[C@H](O)[C@H](C)O2)O1` [BCH2090, (1'S,1S,3S)-1-(3'-trifluoroacetamido-2',3',6'-trideoxy-lyxo-L-hexopyranose)-3-acetyl-3-methyl-3,4,5,10-tetrahydro-5,10-dioxo-1H-naphtho-[2,3-c]pyran], the IC50 in experiment [1] was found to be 36 µM; in experiment [2] it was 11000 nM; in experiment [3], 10400 nM.
Turning to `CC(=O)[C@H]1CC2=C(C(=O)c3ccccc3C2=O)[C@H](O[C@H]2C[C@H](NC(=O)C(F)(F)F)[C@H](O)[C@H](C)O2)S1` [BCH2127, (1'S, 1R, 3R)-1-(3'-trifluoroacetamido-2',3',6'-trideoxy-L-lyxohexopyranose)-3-acetyl-5,10-dioxo-3,4,5,10-tetrahydro-1H-naphtho-[2,3-c]-thiopyran], the IC50 in the experiment on Lox (Melanoma) was determined as 2000 nM; in experiment [1], 4.1 µM; in experiment [2], 350 nM; in experiment [3], 2700 nM.
In the same order, the values of `COC(=O)C1(C(=O)OC)CC2=C(CO1)C(=O)c1ccccc1C2=O` [BCH1665, 3,3-bis-(methoxycarbonyl)-5,10-dioxo-3,4,5,10-tetrahydro-1H-naphtho-[2,3-c]-pyran] are 11500 nM, 28.9 µM, 25400 nM and 60400 nM.
For the compound `CC(C)OC(=O)[C@@H]1CC2=C(C(=O)c3ccccc3C2=O)[C@@H](O[C@H]2C[C@H](NC(=O)C(F)(F)F)[C@H](O)[C@H](C)O2)O1` [BCH2122, (1'S, 1R, 3S)-5,10-dioxo-3-isopropoxycarbonyl-1-(2',3',6'-trideoxy-3'-trifluoroacetamido-L-lyxohexopyranose)-3,4,5,10-tetrahydro-1H-naphtho-[2,3-c]-pyran], the IC50 with Lox (Melanoma) came out at 730 nM; in experiment [1], 2 µM; in experiment [2], 370 nM; in experiment [3] it was 640 nM.
Regarding `COC1OC(C(=O)NCCN2CCOCC2)=CC2=C1C(=O)c1ccccc1C2=O` (stereo not shown) [BCH2170, 1-methoxy-3-[2-(N-morpholino)ethylaminocarbonyl]-5,10-dioxo-5,10-dihydro-1H-naphtho-[2,3-c]-pyran], the IC50 in experiment [1] amounted to 0.394 µM; in experiment [2], 259 nM; in experiment [3] it was 244 nM.
Take `CC[C@H]1CC2=C(C(=O)c3ccccc3C2=O)[C@H](NC(C)=O)O1` (relative stereo) [BCH2027, Trans-5,10-dioxo-1-acetamido-3-ethyl-3,4,5,10-tetrahydro-1H-naphtho-[2,3-c]-pyran]: the figures for the half-inhibitory concentration (IC50) in experiment [1], in experiment [2] and in experiment [3] were 29 µM, 7010 nM and 15400 nM, respectively.
